From patent publication US11685746B2, “Heteroaryl compounds for treating Huntington's disease” (PTC THERAPEUTICS, INC., priority 2018, dated 2023)

Tested on: Endogenous Huntingtin Protein
Experiment: Endogenous Huntingtin Protein Assay (MSD plates, MW1 or MAB2166 capture antibody)
Format: cell-based
Settings: Table 1
Procedure: Endogenous Huntingtin Protein Assay
Meso Scale Discovery (MSD) 96-well or 384-well plates were coated overnight at 4° C. with MW1 (expanded polyglutamine) or MAB2166 monoclonal antibody (for capture) at a concentration of 1 μg/mL in PBS (30 μL per well). Plates were then washed three times with 300 μL wash buffer (0.05% Tween-20 in PBS) and blocked (100 μL blocking buffer; 5% BSA in PBS) for 4-5 hours at room temperature with rotational shaking and then washed three times with wash buffer.
Samples (25 μL) were transferred to the antibody-coated MSD plate and incubated overnight at 4° C. After removal of the lysates, the plate was washed three times with wash buffer, and 25 μL of #5656S (Cell signaling; rabbit monoclonal) secondary antibody (diluted to 0.25 μg/mL in 0.05% Tween-20 in blocking buffer) was added to each well and incubated with shaking for 1 Hour at room temperature. Following incubation with the secondary antibody, the wells were rinsed with wash buffer after which 25 μL of goat anti-rabbit SULFO TAG secondary detection antibody (required aspect of the MSD system) (diluted to 0.25 μg/mL in 0.05% Tween-20 in blocking buffer) was added to each well and incubated with shaking for 1 hour at room temperature. After rinsing three times with wash buffer, 150 μL of read buffer T with surfactant (MSD) were added to each empty well, and the plate was imaged on a SI 6000 imager (MSD) according to manufacturers' instructions provided for 96- or 384-well plates.

Row | Compound | IC50 [nM]
1 | CN(c1nc2sc(-c3ncc(-c4cn[nH]c4)nn3)nc2s1)C1CC(C)(C)NC(C)(C)C1 [Compound 100, N-methyl-5-[6-(1H-pyrazol-4-yl)-1,2,4-triazin-3-yl]-N-(2,2,6,6-tetramethylpiperidin-4-yl)[1,3]thiazolo[5,4-d][1,3]thiazol-2-amine] | ≤ 100
2 | CN(c1nc2sc(-c3cnc(-c4cn[nH]c4)c4[nH]ccc34)nc2s1)C1CCNCC1 [Compound 226, N-methyl-N-(piperidin-4-yl)-5-[7-(1H-pyrazol-4-yl)-1H-pyrrolo[2,3-c]pyridin-4-yl][1,3]thiazolo[5,4-d][1,3]thiazol-2-amine] | ≤ 100
3 | N-methyl-N-[(2S,4R)-2-methylpiperidin-4-yl]-5-[4-(1H-pyrazol-4-yl)-1H-pyrrolo[2,3-c]pyridin-7-yl][1,3]thiazolo[5,4-d][1,3]thiazol-2-amine [Compound 71] | 100 to 500
4 | COc1cc(-c2nc3sc(C4CCNCC4)nc3s2)cc2cn(C)nc12 [Compound 26, 7-methoxy-2-methyl-5-[5-(piperidin-4-yl)[1,3]thiazolo[5,4-d][1,3]thiazol-2-yl]-2H-indazole] | ≤ 100
5 | CN(c1nc2sc(-c3ncc(-c4cn[nH]c4)cc3O)nc2s1)C1CC(C)(C)NC(C)(C)C1 [Compound 42, 2-{5-[methyl(2,2,6,6-tetramethylpiperidin-4-yl)amino][1,3]thiazolo[5,4-d][1,3]thiazol-2-yl}-5-(1H-pyrazol-4-yl)pyridin-3-ol] | ≤ 100
6 | CN(c1nc2sc(-n3ccccc3=O)nc2s1)[C@@H]1C[C@H]2CC[C@@H](C1)N2 [Compound 187, 1-(5-{[(1R,3s,5S)-8-azabicyclo[3.2.1]octan-3-yl](methyl)amino}[1,3]thiazolo[5,4-d][1,3]thiazol-2-yl)pyridin-2(1H)-one] | 100 to 500
7 | C[C@@H]1C[C@@H](N(C)c2nc3sc(-c4ncc(-c5cn[nH]c5)c5cc[nH]c45)nc3s2)CCN1 [Compound 85, N-methyl-N-[(2R,4S)-2-methylpiperidin-4-yl]-5-[4-(1H-pyrazol-4-yl)-1H-pyrrolo[2,3-c]pyridin-7-yl][1,3]thiazolo[5,4-d][1,3]thiazol-2-amine] | ≤ 100
8 | CN(c1nc2sc(-c3ccc(-c4cn[nH]c4)nc3)nc2s1)C1CC(C)(C)NC(C)(C)C1 [Compound 135, N-methyl-5-[6-(1H-pyrazol-4-yl)pyridin-3-yl]-N-(2,2,6,6-tetramethylpiperidin-4-yl)[1,3]thiazolo[5,4-d][1,3]thiazol-2-amine] | 100 to 500
9 | CC1CC(N(C)c2nc3sc(-c4ncc(-c5cn[nH]c5)cc4O)nc3s2)CCN1C (centres unmarked) [Compound 182, 2-{5-[(1,2-dimethylpiperidin-4-yl)(methyl)amino][1,3]thiazolo[5,4-d][1,3]thiazol-2-yl}-5-(1H-pyrazol-4-yl)pyridin-3-ol] | ≤ 100
10 | CN(c1nc2sc(-c3cnc(-n4cccn4)cn3)nc2s1)C1CC(C)(C)NC(C)(C)C1 [Compound 105, N-methyl-5-[5-(1H-pyrazol-1-yl)pyrazin-2-yl]-N-(2,2,6,6-tetramethylpiperidin-4-yl)[1,3]thiazolo[5,4-d][1,3]thiazol-2-amine] | 500 to 1000
11 | Cc1n[nH]cc1-c1cnc(-c2nc3sc(N(C)C4CCNCC4)nc3s2)c(O)c1 [Compound 219, 2-{5-[methyl(piperidin-4-yl)amino][1,3]thiazolo[5,4-d][1,3]thiazol-2-yl}-5-(3-methyl-1H-pyrazol-4-yl)pyridin-3-ol] | ≤ 100
12 | CN(c1nc2sc(-n3ccc(-c4cn[nH]c4)cc3=O)nc2s1)[C@@H]1CCCNC1 [Compound 155, 1-(5-{methyl[(3R)-piperidin-3-yl]amino}[1,3]thiazolo[5,4-d][1,3]thiazol-2-yl)-4-(1H-pyrazol-4-yl)pyridin-2(1H)-one] | 100 to 500
13 | Cc1cnn(-c2cnc(-c3nc4sc(N(C)[C@@H]5C[C@H]6CC[C@@H](C5)N6)nc4s3)c(O)c2)c1 [Compound 190, 2-(5-{[(1R,3s,5S)-8-azabicyclo[3.2.1]octan-3-yl](methyl)amino}[1,3]thiazolo[5,4-d][1,3]thiazol-2-yl)-5-(4-methyl-1H-pyrazol-1-yl)pyridin-3-ol] | ≤ 100
14 | Oc1cc(-c2cn[nH]c2)ccc1-c1nc2sc(N3CC4(CC5CCC(C4)N5)C3)nc2s1 [Compound 198, 5-(1H-pyrazol-4-yl)-2-[5-(spiro[8-azabicyclo[3.2.1]octane-3,3′-azetidin]-1′-yl)[1,3]thiazolo[5,4-d][1,3]thiazol-2-yl]phenol] | 500 to 1000
15 | CN1CCC(N(C)c2nc3sc(-c4ccc(-c5cn[nH]c5)cc4O)nc3s2)CC1 [Compound 24, 2-{5-[methyl(1-methylpiperidin-4-yl)amino][1,3]thiazolo[5,4-d][1,3]thiazol-2-yl}-5-(1H-pyrazol-4-yl)phenol] | ≤ 100
16 | Cc1cn(-c2cnc(-c3nc4sc(N(C)[C@H]5C[C@]6(C)CC[C@](C)(C5)N6)nc4s3)cn2)cn1 [Compound 88, N-[(1R,3s,5S)-1,5-dimethyl-8-azabicyclo[3.2.1]octan-3-yl]-N-methyl-5-[5-(4-methyl-1H-imidazol-1-yl)pyrazin-2-yl][1,3]thiazolo[5,4-d][1,3]thiazol-2-amine] | ≤ 100
17 | CN(c1nc2sc(-c3ccc(-c4cnn(C)c4F)cc3O)nc2s1)C1CC(C)(C)NC(C)(C)C1 [Compound 48, 5-(5-fluoro-1-methyl-1H-pyrazol-4-yl)-2-{5-[methyl(2,2,6,6-tetramethylpiperidin-4-yl)amino][1,3]thiazolo[5,4-d][1,3]thiazol-2-yl}phenol] | 100 to 500
18 | CN(c1nc2sc(-c3cc(F)c(-c4cn[nH]c4)cc3F)nc2s1)[C@@H]1C[C@H]2CC[C@@H](C1)N2 [Compound 158, N-[(1R,3s,5S)-8-azabicyclo[3.2.1]octan-3-yl]-5-[2,5-difluoro-4-(1H-pyrazol-4-yl)phenyl]-N-methyl[1,3]thiazolo[5,4-d][1,3]thiazol-2-amine] | ≤ 100
19 | [2H]C([2H])([2H])n1cc(-c2cnc(-c3nc4sc(N(C)C5CC(C)(C)NC(C)(C)C5)nc4s3)c(O)c2)cn1 [Compound 49, 5-[1-(^2H3)methyl-1H-pyrazol-4-yl]-2-{5-[methyl(2,2,6,6-tetramethylpiperidin-4-yl)amino][1,3]thiazolo[5,4-d][1,3]thiazol-2-yl}pyridin-3-ol] | ≤ 100
20 | CN(c1nc2sc(-c3ncc(-c4cn[nH]c4)c4ccn(C)c34)nc2s1)C1CCNCC1 [Compound 113, N-methyl-5-[1-methyl-4-(1H-pyrazol-4-yl)-1H-pyrrolo[2,3-c]pyridin-7-yl]-N-(piperidin-4-yl)[1,3]thiazolo[5,4-d][1,3]thiazol-2-amine] | 100 to 500
21 | CC1CC(N(C)c2nc3sc(-c4ccc(-c5cn[nH]c5)c5cc[nH]c45)nc3s2)CCN1C (centres unmarked) [Compound 125, N-(1,2-dimethylpiperidin-4-yl)-N-methyl-5-[4-(1H-pyrazol-4-yl)-1H-indol-7-yl][1,3]thiazolo[5,4-d][1,3]thiazol-2-amine] | ≤ 100
22 | CN(c1nc2sc(-c3cc(F)c(-c4cn[nH]c4)cc3F)nc2s1)C1CC(C)(C)NC(C)(C)C1 [Compound 4, 5-[2,5-difluoro-4-(1H-pyrazol-4-yl)phenyl]-N-methyl-N-(2,2,6,6-tetramethylpiperidin-4-yl)[1,3]thiazolo[5,4-d][1,3]thiazol-2-amine] | ≤ 100
23 | CN(c1nc2sc(-c3ccc(-c4cn[nH]c4)c4cc[nH]c34)nc2s1)C1CC(C)(C)NC(C)(C)C1 [Compound 128, N-methyl-5-[4-(1H-pyrazol-4-yl)-1H-indol-7-yl]-N-(2,2,6,6-tetramethylpiperidin-4-yl)[1,3]thiazolo[5,4-d][1,3]thiazol-2-amine] | ≤ 100
24 | CN1CCCC2(CCN2c2nc3sc(-c4ncc(-c5cn[nH]c5)c5cc[nH]c45)nc3s2)C1 (centres unmarked) [Compound 96, 7-[5-(6-methyl-1,6-diazaspiro[3.5]nonan-1-yl)[1,3]thiazolo[5,4-d][1,3]thiazol-2-yl]-4-(1H-pyrazol-4-yl)-1H-pyrrolo[2,3-c]pyridine] | ≤ 100
25 | CN(c1nc2sc(-c3ncc(Br)cc3O)nc2s1)[C@@H]1C[C@H]2CC[C@@H](C1)N2 [Compound 185, 2-(5-{[(1R,3s,5S)-8-azabicyclo[3.2.1]octan-3-yl](methyl)amino}[1,3]thiazolo[5,4-d][1,3]thiazol-2-yl)-5-bromopyridin-3-ol] | ≤ 100
26 | CN(c1nc2sc(-c3ncc(-n4ccnn4)cc3O)nc2s1)C1CCNCC1 [Compound 215, 2-{5-[methyl(piperidin-4-yl)amino][1,3]thiazolo[5,4-d][1,3]thiazol-2-yl}-5-(1H-1,2,3-triazol-1-yl)pyridin-3-ol] | 100 to 500
27 | Cn1cc2cc(-c3nc4sc(C5CCNCC5)nc4s3)ccc2n1 [Compound 25, 2-methyl-5-[5-(piperidin-4-yl)[1,3]thiazolo[5,4-d][1,3]thiazol-2-yl]-2H-indazole] | 100 to 500
28 | CC1CC(N(C)c2nc3sc(-c4ncc(-c5cn[nH]c5)c5cc[nH]c45)nc3s2)CCN1C (centres unmarked) [Compound 152, N-(1,2-dimethylpiperidin-4-yl)-N-methyl-5-[4-(1H-pyrazol-4-yl)-1H-pyrrolo[2,3-c]pyridin-7-yl][1,3]thiazolo[5,4-d][1,3]thiazol-2-amine] | ≤ 100
29 | CN(c1nc2sc(-c3cnc(-c4cn[nH]c4)cn3)nc2s1)[C@@H]1C[C@H]2CC[C@@H](C1)N2 [Compound 164, N-[(1R,3s,5S)-8-azabicyclo[3.2.1]octan-3-yl]-N-methyl-5-[5-(1H-pyrazol-4-yl)pyrazin-2-yl][1,3]thiazolo[5,4-d][1,3]thiazol-2-amine] | ≤ 100
